According to PMC8002983, “Mammalian Arginase Inhibitory Activity of Methanolic Extracts and Isolated Compounds from Cyperus Species” (Molecules, 2021):
Where two headings read alike, the source gives them in different places.

Tests used:
[1] = target: T1, purified liver bovine arginase (b-ARGI) (Bos taurus, UniProt Q2KJ64); assay: in vitro arginase inhibitory assay (colorimetric urea detection); format: biochemical; settings: means ± SEM, three distinct experiments in triplicate, read-out: Arginase Inhibition, IC50
T1 construct: purified liver bovine arginase 1, which was purchased from MP Biomedicals; purchased MP Biomedicals (Illkirch-Graffenstaden, France); host or cells: bovine liver (tissue-purified)
T1 sequence (Q2KJ64 1-322): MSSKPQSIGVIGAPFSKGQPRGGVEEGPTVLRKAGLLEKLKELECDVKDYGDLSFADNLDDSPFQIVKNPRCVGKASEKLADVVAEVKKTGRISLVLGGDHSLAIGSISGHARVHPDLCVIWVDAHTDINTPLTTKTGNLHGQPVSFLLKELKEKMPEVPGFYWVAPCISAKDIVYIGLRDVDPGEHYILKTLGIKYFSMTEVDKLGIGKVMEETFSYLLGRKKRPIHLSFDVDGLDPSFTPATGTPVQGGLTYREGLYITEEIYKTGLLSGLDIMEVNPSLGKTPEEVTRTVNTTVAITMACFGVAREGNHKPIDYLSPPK
Method: The amount of urea produced by the hydrolysis of L-arginine by arginase (purified liver bovine arginase (b-ARGI)) can be detected using a color reactant (α-isonitrosopropiophenone) followed by a colorimetric assay, as described below. In each well of a 96-well microplate, the solutions were added in the following order: (1) buffer containing Tris-HCl (50 mM, pH 7.5) and 0.1% of bovine serum albumin (TBSA buffer) (10 μL), with or without (control) arginase (0.025 U/μL); (2) Tris-HCl solution (50 mM, pH 7.5) containing 10 mM MnCl2 as a cofactor (30 μL); (3) a solution containing an inhibitor or its solvent (as a control) (10 μL); (4) a solution of L-arginine (pH 9.7, 0.05 M) (20 μL). The microplate was incubated for 60 min in a 37 °C water bath after covering with a plastic sealing film. The addition of 120 μL of H2SO4/H3PO4/H2O (1:3:7) quenched the reaction. The microplate was left on ice for 5 min. Thereafter, 10 μL of α-isonitrosopropiophenone (5% in absolute ethanol (EtOH)) was added, and the microplate was heated in an oven at 100 °C for 45 min, after covering with an aluminum sealing film. As the colored product is photosensitive, the microplate was kept in the dark until reading. After 5 min of centrifugation and cooling for another 10 min, the microplate was shaken for 2 min and the absorbance was read at 550 nm and 25 °C using a spectrophotometer (Synergy HT BioTeck). The level of arginase activity was expressed as relative to the “100% arginase activity”. The experiment was repeated three times with each microplate under similar experimental conditions (e.g., various inhibitor concentrations.)
The percentage of arginase inhibitory activity and IC50 values was evaluated as previously described. A stock solution (70 mM) was prepared in DMSO and stored at −26 °C for each compound. These stock solutions were extemporaneously and successively diluted in ultrapure H2O to afford the following concentrations: 7000, 2100, 700, 210, 70, 21, 7, 2.1, and 0.7 μM, corresponding to final concentrations in the wells of 1000, 300, 100, 30, 10, 3, 1, 0.3, 0.1 μM, respectively. For a first screening, compounds were tested at final concentrations of 10 and 100 μM. Each solution was incubated with arginase for 1 h, as described above. The percentage of arginase inhibition was calculated by conversion of the resulting absorbance (relative to the absorbance of controls with only solvent (“100% arginase activity”)) and plotted on a semilogarithmic scale. The IC50 values were estimated by nonlinear sigmoidal curve-fitting by using Prism (GraphPad Software, version 5.0.3).

[2] = system: aortic rings from adjuvant induced-arthritis rats; assay: ex vivo acetylcholine-induced relaxation in isolated aortic rings from arthritic rats; parameters: species or system rat; settings: day 33 post-immunization, phenylephrine 10^−6 mol/L preconstriction, nor-NOHA 10^−4 mol/L, extract 2.6 10^−3 mg/mL
Method: This part of the experiment was performed on 15 male Lewis rats (6 weeks old), purchased from JanvierLabs (Le Genest Saint Isle, France). The experimental procedures were approved by the local ethics committee for animal experimentation No. 2015/001-CD/5PR of Franche-Comté University (Besançon, France) and complied with the “Animal Research: Reporting In Vivo Experiments” (ARRIVE) guidelines.
Arthritis was induced by a single intradermal injection to the tail of 120 μL of 10 mg·ml^−1 heat-killed Mycobacterium butyricum suspended in Freund’s incomplete adjuvant, as described previously. Non-arthritic age-matched rats were used as controls and received saline at the base of the tail.
At 33 days post-immunization, corresponding to the acute phase of arthritis, the rats were anesthetized using sodium pentobarbital 60 mg/kg (Ceva Santé Animale, France). The descending thoracic aorta was excised and carefully cleaned for vascular study as previously described. […] To assess the effect of arginase inhibitors, experiments were repeated in the presence of nor-NOHA (10^−4 M) and C. thunbergii extract (at EC50 obtained by in vitro test), respectively.

[3] = target: T1, purified liver bovine arginase (b-ARGI); parameters: method as in PMID 27776374, PMID 28837342; settings: mammalian arginase; read-out: Arginase inhibition IC50 of natural inhibitor piceatannol; cited from earlier work

IC50 [1] | Structure (SMILES) | further results
17.6 ± 2.2 µM | Oc1ccc(/C=C/c2cc(O)cc3c2[C@H](c2cc(O)cc(O)c2)[C@@H](c2ccc(O)c(O)c2)O3)cc1 (stereo in doubt) [Compound 4, trans-scirpusin A] | 
28.8 ± 2.5 µM | COc1cc2c3c(cc(O)cc3c1)C(C)(C)c1c-2ccc(OC)c1O [Compound 1, 4,6-dihydroxy-12-dimethyl-3,10-dimethoxybenzophenanthrene] | 
74.1 ± 3.7 µM | COc1cc2c3c(c1)O[C@H](C)CC3(C)c1cc3oc(OC)ccc-3c1O2 (stereo partly drawn) [Compound 2, thunbergin B] | 
105 ± 4.1 µM | Oc1ccc(/C=C/c2cc(O)cc(O)c2)cc1 [Compound 3, trans-resveratrol] | 
57.1 ± 2.3 µM | O=C1/C(=C/c2ccc(O)c(O)c2)Oc2cc(O)cc(O)c21 [Compound 5, aureusidin] | 
19.4 ± 1.3 µM | Oc1cc(O)cc(-c2c(-c3ccc(O)c(O)c3)oc3cc4oc(-c5ccc(O)c(O)c5)c(-c5cc(O)cc(O)c5)c4c(/C=C/c4ccccc4)c23)c1 [Compound 6, trans-cyperusphenol A] | 
60.6 ± 3.1 µM | O=c1cc(-c2ccc(O)c(O)c2)oc2cc(O)cc(O)c12 [Compound 7, luteolin] | 
 | N=C(NO)NCC[C@H](N)C(=O)O [nor-NOHA, Nω-hydroxy-nor-L-arginine] | effect on depressed Ach-induced endothelium-dependent relaxation (endothelial dysfunction) [2]: relaxation was higher
 | Oc1cc(O)cc(/C=C/c2ccc(O)c(O)c2)c1 [piceatannol] | IC50 [3]: 12.6 µM
